# Reference: PMC10991509, “A phase I study of ATR inhibitor gartisertib (M4344) as a single agent and in combination with carboplatin in patients with advanced solid tumours” (British Journal of Cancer, 2024)
# Read-outs that look alike come from different tables or passages of the source.
# How the values were obtained:
# [1] = tested on: patients with advanced solid tumours; experiment: Phase I safety and tolerability (TEAEs, DLTs, MTD/RP2D); type: in vivo
# Description: This phase I, multicenter, multicohort, open-label, first-in-human study (NCT02278250) assessed the safety, tolerability, pharmacokinetics (PK) and antitumour activity of orally administered gartisertib alone or in combination with intravenous carboplatin in patients with advanced solid tumours for whom no standard therapy was available.
# The primary objectives of cohorts A and A2 were to evaluate safety and tolerability and determine the maximum tolerated dose (MTD) and/or recommended phase II dose (RP2D) of escalating doses of gartisertib monotherapy. In cohort B1, the primary objective was to determine the safety and tolerability as well as the MTD and/or RP2D of escalating doses of gartisertib in combination with carboplatin. The primary endpoints for these three study cohorts were safety parameters (AEs, clinical laboratory values, vital signs, and electrocardiogram [ECG] assessment) as well as the MTD and/or RP2D. The Supplementary Materials provide further details regarding the safety analysis, including determination of MTD, as well as the definitions of dose-limiting toxicities (DLTs; Supplementary Table S1). Please note that in this study increased blood bilirubin was defined as a laboratory finding whereas hyperbilirubinemia was a clinical diagnosis based on clinical symptoms.
# Gartisertib safety was determined via reporting, recording, and analysis of Baseline Medical Conditions, AEs, physical examination data including vital signs, electrocardiograms and laboratory tests. Medical history and physical examination data were collected during the study. Any potential AE was reported and comprehensively evaluated throughout the study. AE severity was assessed according to the National Cancer Institute – Common Terminology Criteria for Adverse Events (NCI–CTCAE) version 4.0 (cohorts A and B1) or 5.0 (cohorts A2 and C). Any clinical AE with a grade of 4 or 5 was considered to be a serious AE (SAE). A laboratory AE of grade 4 was considered serious if it met certain SAE criteria. […] Important medical events that may not result in death, be life-threatening, or require hospitalization were considered to be SAEs when, based upon appropriate medical judgment, they may jeopardize the patient or may require medical or surgical intervention to prevent one of the outcomes listed above.
# Patients were monitored throughout treatment cycles for DLTs. DLTs were defined using the NCI CTCAE (cohorts A and B1: version 4.0; cohort A2: version 5.0) and were defined as being related or possibly related to treatment.
# Cohorts A, A2, and B1: With respect to determination of the MTD, the next dose level to be investigated was decided at a Dose Escalation Meeting and was based on the available safety data from the previous cohort. The MTD of gartisertib was primarily determined by DLTs that occurred up to and including the end of the DLT period. Please see Table S1 for definitions of DLTs. In cohorts A and B1, the gartisertib MTD was determined according to the NCI-CTCAE version 4.0 and in cohorts A2 and […], the gartisertib MTD was defined according to the NCI-CTCAE version 5.0. If ≥2 out of up to six participants at the same dose level have a DLT, the gartisertib MTD was determined as the dose level below or at an intermediate dose level. The exact dose was determined following a discussion regarding all the relevant toxicity, including DLTs that occur in prior cohorts beyond the end of the DLT period. An RP2D was determined for each applicable cohort of the study; however, it may not be higher than the MTD.
# [2] = Plasma pharmacokinetics of gartisertib; type: in vivo, human; settings: for clearance: read-out: drug clearance
# Description: The secondary objectives for cohorts A, A2, and B1 were to assess antitumour activity and PK. Endpoints associated with antitumour activity included confirmed best overall response (BOR), according to RECIST v1.1. PK endpoints included PK parameter estimates, derived from plasma concentration-time data. Please see the Supplementary Materials for details on further PK endpoints and assessments as well as the PK assessment schedule (Supplementary Table S2).
# Categorical variables (such as incidence of a TEAE) were summarised using frequency counts and percentages, along with 2-sided exact Clopper–Pearson 95% confidence intervals (CIs). TEAEs observed were summarised by System Organ Class and Preferred Term according to the Medical Dictionary for Regulatory Activities (versions 23.0 and 24.0). Standard non-compartmental methods were used to determine PK parameters.
# Blood samples were collected according to the Schedule of Assessments in order to measure gartisertib (and metabolites where appropriate) plasma concentrations. PK parameters included maximum observed plasma concentration (Cmax), time to reach maximum observed plasma concentration (Tmax), terminal half-life, area under the concentration–time curve (AUC) from time zero extrapolated to infinity, apparent oral clearance, and apparent volume of distribution during the terminal phase as well as Cmax and AUC accumulation ratios. Please see Table S2 for the PK assessment schedule.
structure (smiles),measurement,setting,value
"Nc1nn2cc(F)cnc2c1C(=O)Nc1cncc(F)c1N1CCC(C(=O)N2CCN(C3COC3)CC2)CC1 [gartisertib, Gartisertib]","TEAE Constipation, Grade 3/4","[1]; human, in vivo",0 (0.0) n (%)
same,"TEAE Decreased appetite, Grade 3/4","[1]; human, in vivo",0 (0.0) n (%)
same,"TEAE Diarrhoea, Grade 3/4","[1]; human, in vivo",0 (0.0) n (%)
same,"TEAE Disease progression, Grade 3/4","[1]; human, in vivo",0 (0.0) n (%)
same,"TEAE Disease progression, any grade","[1]; human, in vivo",0 (0.0) n (%)
same,"TEAE Dyspnoea, Grade 3/4","[1]; human, in vivo",0 (0.0) n (%)
same,"TEAE Headache, Grade 3/4","[1]; human, in vivo",0 (0.0) n (%)
same,"TEAE Hypokalaemia, Grade 3/4","[1]; human, in vivo",0 (0.0) n (%)
same,"TEAE Hypokalaemia, any grade","[1]; human, in vivo",0 (0.0) n (%)
same,"TEAE Hypomagnesaemia, Grade 3/4","[1]; human, in vivo",0 (0.0) n (%)
same,"TEAE Hypomagnesaemia, any grade","[1]; human, in vivo",0 (0.0) n (%)
same,"TEAE Jaundice, Grade 3/4","[1]; human, in vivo",0 (0.0) n (%)
same,"TEAE Jaundice, any grade","[1]; human, in vivo",0 (0.0) n (%)
same,"TEAE Neutropenia, Grade 3/4","[1]; human, in vivo",0 (0.0) n (%)
same,"TEAE Peripheral oedema, Grade 3/4","[1]; human, in vivo",0 (0.0) n (%)
same,"TEAE Peripheral oedema, any grade","[1]; human, in vivo",0 (0.0) n (%)
same,"TEAE Thrombocytopenia, Grade 3/4","[1]; human, in vivo",0 (0.0) n (%)
same,"TEAE Thrombocytopenia, any grade","[1]; human, in vivo",0 (0.0) n (%)
same,TEAE anaemia,"[1]; human, in vivo",61.5%
same,TEAE fatigue,"[1]; human, in vivo",47.6%
same,TEAE increased blood bilirubin,"[1]; human, in vivo",61.5%
same,TEAE nausea,"[1]; human, in vivo",66.7%
same,abdominal pain leading to gartisertib discontinuation,"[1]; human, in vivo",7.7%
same,hepatic failure leading to gartisertib discontinuation,"[1]; human, in vivo",7.7%
same,increased ALT leading to gartisertib discontinuation,"[1]; human, in vivo",7.7%
same,increased blood bilirubin leading to gartisertib discontinuation,"[1]; human, in vivo",11.9%
same,nausea leading to gartisertib discontinuation,"[1]; human, in vivo",7.1%
same,patients experiencing a gartisertib-related TEAE,"[1]; human, in vivo",≥ 92.3%
same,patients who experienced at least one serious TEAE,"[1]; human, in vivo",≥ 50%
same,patients with grade 3 or 4 changes in laboratory parameters,"[1]; human, in vivo",≤ 20%
same,recommended phase II dose (RP2D),"[1]; human, in vivo",250 mg QD
same,serious TEAE related to gartisertib,"[1]; human, in vivo",19.0-37.5%
same,DLTs at QD doses subsequently investigated,[1]; in vivo,no additional DLTs observed
same,changes in ECG parameters,[1]; in vivo,no clinically relevant changes
same,changes in vital signs,[1]; in vivo,no clinically relevant changes
same,gartisertib dose reduction due to a treatment-related TEAE,[1]; in vivo,eight
same,patients with ≥1 DLT,[1]; in vivo,five
same,tolerability of gartisertib 1200 mg twice weekly,[1]; in vivo,not tolerated
same,deaths considered related to gartisertib or carboplatin,[1]; six deaths reported across all cohorts,none
same,accumulation following multiple gartisertib doses,[2]; cohort A,less than 2 fold
same,urinary excretion of gartisertib,[2]; cohort A2,minor route of elimination
same,time median plasma concentrations remained above the lower limit of quantification (1.00 ng/mL),"[2]; cohort A2, 250 mg dose",≤ 24 h
same,time median plasma concentrations remained above the lower limit of quantification (1.00 ng/mL),"[2]; cohort A2, doses other than 250 mg",up to 8 hours
same,accumulation compared with day 1,"[2]; cohort A, 450 mg dose",no accumulation
same,accumulation of AUC0-t at day 8 compared with day 1,"[2]; cohort A, 1200 mg dose group",1.9 fold
same,accumulation of Cmax at day 8 compared with day 1,"[2]; cohort A, 1200 mg dose group",1.6 fold
same,time of peak median plasma gartisertib concentration,"[2]; cohort A, 1200 mg group",4 hours post dose
same,time median gartisertib concentrations remained above the lowest level of quantification (1.00 ng/mL),"[2]; cohort A, 450, 700, 1050 and 1200 mg groups",up to 24 hours post dose
same,exposure (Cmax and AUC) versus dose,"[2]; cohorts A, A2, and B1, high variability",dose-proportional exposure
same,clearance,"[2]; human, plasma, oral, cohort A2, day 1",3450 to 8580 mL/min
same,clearance,"[2]; human, plasma, oral, cohort A2, day 8",3980 to 7070 mL/min
same,half-life,"[2]; human, plasma, oral, cohorts A, A2, and B1, read-out: half-life (t1/2)",2 to 5 h
same,half-life,"[2]; human, plasma, oral, cohort A, four highest dose levels, read-out: geometric mean terminal half-life",2.22 to 4.61 h
same,Vd,"[2]; human, plasma, oral, cohort A, four highest dose levels, read-out: volume of distribution based on the terminal elimination phase following extravascular administration",1480 to 4060 L
